Test system: R/R non-GCB DLBCL
Test: Compound 1 in combination with anti-CD20 antibody in patients with R/R non-GCB DLBCL
Format: in vivo, human
Details: for unadjusted ORR: non-GCB DLBCL
Method: A total of 121 patients with R/R non-GCB DLBCL were recruited in four Compound 1 treatment studies that were conducted at a similar time period. Two of the four studies were Compound 1 monotherapy (n=79) and two were Compound 1 combined with an anti-CD20 antibody therapy (n=42). Similar inclusion and exclusion criteria and response evaluation criteria were used across all studies. Fifty-six non-GCB patients were further subtyped by gene expression profiling (GEP) using the HTG EdgeSeq DLBCL Cell of Origin Assay. The expression of approximately 90 lymphoma-associated genes from the HTG GEP assay were analyzed by R package limma for correlation with response to Compound 1 treatment. Seventy-seven patient samples were tested by next-generation sequencing (NGS) with a panel of genes. Chi-square test was used to evaluate the correlation between mutations and the objective response rate (ORR).
Combination therapy schedule 1: Compound 1 was administered orally every day in each cycle at 160 mg BID in 28-day cycles, in combination with obinutuzumab, in patients with R/R non-GCB DLBCL. Obinutuzumab was administered for up to 6 cycles consistent with the U.S. label regimen (100 mg at Day 1 Cycle 1, 1000 mg at Day 8 and Day 15, 900 mg at Day 2 Cycle 1 followed by 1000 mg on day one of cycles 2-6).
Combination therapy schedule 2: Compound 1 was administrated orally every day in each cycle at 160 mg BID in 28-day cycles, in combination with rituximab, in patients with R/R non-GCB DLBCL. Rituximab was administered at 375 mg/m2 intravenously on Cycle 1 Days 1, 8, 15, 22, and on Day 1 of Cycles 4, 6, 8, 10. Compound 1 was administered at least 30 minutes prior to the initiation of the rituximab infusion.
42 patients with non-GCB DLBCL were subjected to Compound 1 plus anti-CD20 antibody Combination therapy schedule 1 or 2.

[1] = combination therapy Total (N = 42), ABC Subtype of DLBCL Patients
[2] = combination therapy Total (N = 42), CD79B ITAM_Mut
[3] = combination therapy Total (N = 42), CD79B ITAM_WT
[4] = combination therapy Total (N = 42), CD79B_Mut
[5] = combination therapy Total (N = 42), CD79B_WT
[6] = combination therapy Total (N = 42), MYD88_L265P
[7] = combination therapy Total (N = 42), MYD88_L265P/CD79B_Mut
[8] = combination therapy Total (N = 42), MYD88_WT
[9] = combination therapy Total (N = 42), NOTCH1_Mut
[10] = combination therapy Total (N = 42), NOTCH1_WT
[11] = combination therapy Total (N = 42), Non-GCB DLBCL Patients
[12] = combination therapy Total (N = 42), Non-GCB DLBCL Patients with Sequence Available
[13] = combination therapy Total (N = 42), Other (not MYD88_L265P/CD79B_Mut)
[14] = combination therapy Total (N = 42), Patients with Sequence Available
[15] = plus obinutuzumab (N = 22), ABC Subtype of DLBCL Patients
[16] = plus obinutuzumab (N = 22), CD79B ITAM_Mut
[17] = plus obinutuzumab (N = 22), CD79B ITAM_WT
[18] = plus obinutuzumab (N = 22), CD79B_Mut
[19] = plus obinutuzumab (N = 22), CD79B_WT
[20] = plus obinutuzumab (N = 22), MYD88_L265P
[21] = plus obinutuzumab (N = 22), MYD88_L265P/CD79B_Mut
[22] = plus obinutuzumab (N = 22), MYD88_WT
[23] = plus obinutuzumab (N = 22), NOTCH1_Mut
[24] = plus obinutuzumab (N = 22), NOTCH1_WT
[25] = plus obinutuzumab (N = 22), Non-GCB DLBCL Patients
[26] = plus obinutuzumab (N = 22), Non-GCB DLBCL Patients with Sequence Available
[27] = plus obinutuzumab (N = 22), Other (not MYD88_L265P/CD79B_Mut)
[28] = plus obinutuzumab (N = 22), Patients with Sequence Available
[29] = plus rituximab (N = 20), ABC Subtype of DLBCL Patients
[30] = plus rituximab (N = 20), CD79B ITAM_Mut
[31] = plus rituximab (N = 20), CD79B ITAM_WT
[32] = plus rituximab (N = 20), CD79B_Mut
[33] = plus rituximab (N = 20), CD79B_WT
[34] = plus rituximab (N = 20), MYD88_L265P
[35] = plus rituximab (N = 20), MYD88_L265P/CD79B_Mut
[36] = plus rituximab (N = 20), MYD88_WT
[37] = plus rituximab (N = 20), NOTCH1_Mut
[38] = plus rituximab (N = 20), NOTCH1_WT
[39] = plus rituximab (N = 20), Non-GCB DLBCL Patients
[40] = plus rituximab (N = 20), Non-GCB DLBCL Patients with Sequence Available
[41] = plus rituximab (N = 20), Other (not MYD88_L265P/CD79B_Mut)
[42] = plus rituximab (N = 20), Patients with Sequence Available

SMILES: C=CC(=O)N1CCC([C@@H]2CCNc3c(C(N)=O)c(-c4ccc(Oc5ccccc5)cc4)nn32)CC1 [Compound 1, (S)-7-(1-acryloylpiperidin-4-yl)-2-(4-phenoxyphenyl)-4,5,6,7-tetra-hydropyrazolo[1,5-a]pyrimidine-3-carboxamide]
- ORR (GEP-confirmed activated B-cell DLBCL, first of the two combo-therapies (obinutuzumab)): 50%
- ORR (GEP-confirmed activated B-cell DLBCL, second of the two combo-therapies (rituximab)): 40%
- ORR [1]: 45.5
- Response/Patients [1]: 5/11
- ORR [2]: 83.3
- Response/Patients [2]: 5/6
- Difference in ORR (95% CI) (combination therapy Total (N = 42), CD79B ITAM_Mut vs CD79B ITAM_WT): 61.1
- ORR [3]: 22.2
- Response/Patients [3]: 6/27
- ORR [4]: 75.0
- Response/Patients [4]: 6/8
- Difference in ORR (95% CI) (combination therapy Total (N = 42), CD79B_Mut vs CD79B_WT): 55.0
- ORR [5]: 20.0
- Response/Patients [5]: 5/25
- ORR [6]: 66.7
- Response/Patients [6]: 4/6
- Difference in ORR (95% CI) (combination therapy Total (N = 42), MYD88_L265P vs MYD88_WT): 40.7
- ORR [7]: 75.0
- Response/Patients [7]: 3/4
- Difference in ORR (95% CI) (combination therapy Total (N = 42), MYD88_L265P/CD79B_Mut vs Other): 47.4
- ORR [8]: 25.9
- Response/Patients [8]: 7/27
- ORR [9]: 40.0
- Response/Patients [9]: 2/5
- Difference in ORR (95% CI) (combination therapy Total (N = 42), NOTCH1_Mut vs NOTCH1_WT): 7.9
- ORR [10]: 32.1
- Response/Patients [10]: 9/28
- ORR [11]: 28.6
- Response/Patients [11]: 12/42
- ORR [12]: 33.3
- Response/Patients [12]: 11/33
- ORR [13]: 27.6
- Response/Patients [13]: 8/29
- ORR [14]: 35.3
- Response/Patients [14]: 12/34
- unadjusted ORR (first of the two combo-therapies (obinutuzumab)): 22.7%
- unadjusted ORR (second of the two combo-therapies (rituximab)): 35%
- ORR [15]: 50.0
- Response/Patients [15]: 3/6
- ORR [16]: 100.0
- Response/Patients [16]: 3/3
- Difference in ORR (95% CI) (plus obinutuzumab (N = 22), CD79B ITAM_Mut vs CD79B ITAM_WT, in %): 91.7
- ORR [17]: 8.3
- Response/Patients [17]: 1/12
- ORR [18]: 100.0
- Response/Patients [18]: 3/3
- Difference in ORR (95% CI) (plus obinutuzumab (N = 22), CD79B_Mut vs CD79B_WT, in %): 91.7
- ORR [19]: 8.3
- Response/Patients [19]: 1/12
- ORR [20]: 100.0
- Response/Patients [20]: 3/3
- Difference in ORR (95% CI) (plus obinutuzumab (N = 22), MYD88_L265P vs MYD88_WT, in %): 91.7
- ORR [21]: 100.0
- Response/Patients [21]: 3/3
- Difference in ORR (95% CI) (plus obinutuzumab (N = 22), MYD88_L265P/CD79B_Mut vs Other, in %): 91.7
- ORR [22]: 8.3
- Response/Patients [22]: 1/12
- ORR [23]: 66.7
- Response/Patients [23]: 2/3
- Difference in ORR (95% CI) (plus obinutuzumab (N = 22), NOTCH1_Mut vs NOTCH1_WT): 50.0
- ORR [24]: 16.7
- Response/Patients [24]: 2/12
- ORR [25]: 22.7
- Response/Patients [25]: 5/22
- ORR [26]: 26.7
- Response/Patients [26]: 4/15
- ORR [27]: 8.3
- Response/Patients [27]: 1/12
- ORR [28]: 31.3
- Response/Patients [28]: 5/16
- ORR [29]: 40.0
- Response/Patients [29]: 2/5
- ORR [30]: 66.7
- Response/Patients [30]: 2/3
- Difference in ORR (95% CI) (plus rituximab (N = 20), CD79B ITAM_Mut vs CD79B ITAM_WT): 33.3
- ORR [31]: 33.3
- Response/Patients [31]: 5/15
- ORR [32]: 60.0
- Response/Patients [32]: 3/5
- Difference in ORR (95% CI) (plus rituximab (N = 20), CD79B_Mut vs CD79B_WT): 29.2
- ORR [33]: 30.8
- Response/Patients [33]: 4/13
- ORR [34]: 33.3
- Response/Patients [34]: 1/3
- Difference in ORR (95% CI) (plus rituximab (N = 20), MYD88_L265P vs MYD88_WT): −6.7
- ORR [35]: 0.0
- Response/Patients [35]: 0/1
- Difference in ORR (95% CI) (plus rituximab (N = 20), MYD88_L265P/CD79B_Mut vs Other): −41.2
- ORR [36]: 40.0
- Response/Patients [36]: 6/15
- ORR [37]: 0.0
- Response/Patients [37]: 0/2
- Difference in ORR (95% CI) (plus rituximab (N = 20), NOTCH1_Mut vs NOTCH1_WT): −43.8
- ORR [38]: 43.8
- Response/Patients [38]: 7/16
- ORR [39]: 35.0
- Response/Patients [39]: 7/20
- ORR [40]: 38.9
- Response/Patients [40]: 7/18
- ORR [41]: 41.2
- Response/Patients [41]: 7/17
- ORR [42]: 38.9
- Response/Patients [42]: 7/18

From US20230089557A1, “METHODS OF TREATING DLBCL USING BTK INHIBITORS AND COMBINATIONS THEREOF” (BEIGENE SWITZERLAND GMBH, priority 2020, published 2023)
